This note sets out measurements from BindingDB's records for doi:10.1016/j.bmcl.2004.02.106 (Merck Research Laboratories, 2004).

The assay has as its target Sphingosine 1-phosphate receptor 5 (Homo sapiens) (UniProt Q9H228). The assay is described as follows: Inhibition of [33P]-S1P binding to human Sphingosine 1-phosphate receptor 5 expressed on CHO cell membranes.

Several values for one entry are separate records, joined by “and”; a condition that tells them apart may be missing. Identical values can stand only once.

Sphingosine 1-phosphate receptor 5 (Homo sapiens), sequence (Q9H228 whole entry, looked up): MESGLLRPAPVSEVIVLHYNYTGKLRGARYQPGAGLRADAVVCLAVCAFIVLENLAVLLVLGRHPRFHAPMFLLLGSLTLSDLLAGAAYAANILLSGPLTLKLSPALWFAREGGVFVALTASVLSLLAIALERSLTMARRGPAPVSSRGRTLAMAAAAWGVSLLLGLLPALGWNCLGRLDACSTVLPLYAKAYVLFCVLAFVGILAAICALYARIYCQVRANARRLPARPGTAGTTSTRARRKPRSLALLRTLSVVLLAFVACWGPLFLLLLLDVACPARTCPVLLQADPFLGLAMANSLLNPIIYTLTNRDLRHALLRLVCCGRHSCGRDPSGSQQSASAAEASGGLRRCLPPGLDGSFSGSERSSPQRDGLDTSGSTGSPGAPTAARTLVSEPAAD

Regarding `CCCCCCCCc1ccc(CC[C@@H](N)CC(=O)[PH](O)(O)O)cc1`, the 50% inhibitory concentration (IC50) is 4.5 nM and 33 nM.
For the compound `CCCCCCCCc1ccc(CCC(N)C(=O)C[PH](O)(O)O)cc1` (centres undefined), the IC50 is 240 nM and 76 nM.
The value for `CCCCCCCCc1ccc(CC[C@H](N)CC(=O)[PH](O)(O)O)cc1` was 27 nM and 73 nM; that for `CCCCCCCCc1ccc(CCC(N)CCC(=O)O)cc1` (centres undefined) [4-Amino-6-(4-octyl-phenyl)-hexanoic acid] was 1000 nM.
